From ChEMBL document CHEMBL2169851, “Imidazopyridazinones as novel PDE7 inhibitors: SAR and in vivo studies in Parkinson's disease model” (Bioorg Med Chem Lett, 2012)
Each block holds one compound with its values, some of them ahead of it. Active and inactive are the calls of the source. The calls are words filed in the database; no cut-off is given here.

Columns and labels:
[1] = target: T1, High affinity 3',5'-cyclic-AMP phosphodiesterase 7A (Homo sapiens, UniProt Q13946); assay: Inhibition of cloned human recombinant PDE7A assessed as [3H]cAMP hydrolysis by radiometric assay
[2] = target: T1, High affinity 3',5'-cyclic-AMP phosphodiesterase 7A; assay: Inhibition of cloned human recombinant PDE7A assessed as [3H]cAMP hydrolysis at 1 uM by radiometric assay
[3] = target: T2, High affinity 3',5'-cyclic-AMP phosphodiesterase 7A (Mus musculus, UniProt P70453); assay: Inhibition of mouse PDE7A assessed as [3H]cAMP hydrolysis after 5 to 15 mins by scintillation counter
T2 sequence (P70453 whole entry): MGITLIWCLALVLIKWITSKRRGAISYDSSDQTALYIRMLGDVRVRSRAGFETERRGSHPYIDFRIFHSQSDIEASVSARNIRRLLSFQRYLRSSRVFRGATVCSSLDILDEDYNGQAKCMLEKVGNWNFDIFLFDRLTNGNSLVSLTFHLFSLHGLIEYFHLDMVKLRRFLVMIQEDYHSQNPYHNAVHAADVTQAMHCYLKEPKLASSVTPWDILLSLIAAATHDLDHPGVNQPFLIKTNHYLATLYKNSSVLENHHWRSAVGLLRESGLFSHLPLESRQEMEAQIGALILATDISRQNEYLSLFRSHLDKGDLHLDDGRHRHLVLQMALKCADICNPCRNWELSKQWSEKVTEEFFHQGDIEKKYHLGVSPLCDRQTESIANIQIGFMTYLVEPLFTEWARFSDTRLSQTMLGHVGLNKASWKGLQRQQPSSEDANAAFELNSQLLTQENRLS

Mus musculus [4] = assay: Neurotoxicity in C57BL/6 mouse assessed as haloperidol-induced deffect in motor coordination at 3 mg/kg, ip administered 15 mins prior to haloperidol challenge measured at 0.5 to 1 hr post haloperidol challenge; format: toxicity, organism-based; parameters: dose 3 mg/kg, route intraperitoneal; conditions: in vivo
[5] = Ratio of drug level in brain to plasma in C57 mouse at 100 mg/kg, ip after 30 mins; format: ADME, organism-based; parameters: dose 100 mg/kg, route intraperitoneal; conditions: read-out: BPR
[6] = target: cGMP-inhibited 3',5'-cyclic phosphodiesterase 3A (Homo sapiens) (UniProt Q14432); assay: Inhibition of cloned human recombinant PDE3A assessed as [3H]cAMP hydrolysis at 10 uM by radiometric assay
[7] = Metabolic stability in mouse liver microsomes assessed as compound remaining after 60 mins; format: ADME, Microsome; conditions: read-out: Stability
[8] = target: Dual 3',5'-cyclic-AMP and -GMP phosphodiesterase 11A (Homo sapiens) (UniProt Q9HCR9); assay: Inhibition of cloned human recombinant PDE11A assessed as [3H]cAMP hydrolysis at 10 uM by radiometric assay
[9] = target: cAMP and cAMP-inhibited cGMP 3',5'-cyclic phosphodiesterase 10A (Homo sapiens) (UniProt Q9Y233); assay: Inhibition of cloned human recombinant PDE10A assessed as [3H]cAMP hydrolysis at 10 uM by radiometric assay
[10] = Tmax in C57 mouse at 10 mg/kg, ip; format: ADME, organism-based; parameters: dose 10 mg/kg, route intraperitoneal; conditions: in vivo
[11] = Drug uptake in C57 mouse brain at 10 mg/kg, ip after 30 mins; format: ADME, organism-based; parameters: dose 10 mg/kg, route intraperitoneal; conditions: read-out: Drug uptake
Brain [12] = assay: Free drug level in C57 mouse brain homogenate at 100 mg/kg, ip; format: ADME, organism-based; parameters: dose 100 mg/kg, route intraperitoneal; conditions: in vivo
Homo sapiens [13] = species: Homo sapiens; assay: Selectivity ratio of IC50 for cloned human recombinant PDE4D to IC50 for cloned human recombinant PDE7B
Brain [14] = assay: Free drug level in C57 mouse brain homogenate at 30 mg/kg, ip; format: ADME, organism-based; parameters: dose 30 mg/kg, route intraperitoneal; conditions: in vivo
[15] = target: cGMP-dependent 3',5'-cyclic phosphodiesterase (Homo sapiens) (UniProt O00408); assay: Inhibition of cloned human recombinant PDE2A assessed as [3H]cAMP hydrolysis at 10 uM by radiometric assay
[16] = AUC in C57 mouse at 30 mg/kg, ip; format: ADME, organism-based; parameters: dose 30 mg/kg, route intraperitoneal; conditions: plasma
[17] = Cmax in C57 mouse at 10 mg/kg, ip; format: ADME, organism-based; parameters: dose 10 mg/kg, route intraperitoneal; conditions: in vivo
[18] = target: T3, 3',5'-cyclic-AMP phosphodiesterase 4D (Homo sapiens, UniProt Q08499); assay: Inhibition of cloned human recombinant PDE4D assessed as [3H]cAMP hydrolysis at 10 uM by radiometric assay
[19] = Cmax in C57 mouse at 100 mg/kg, ip; format: ADME, organism-based; parameters: dose 100 mg/kg, route intraperitoneal; conditions: in vivo
Brain [20] = assay: Free drug level in C57 mouse brain homogenate at 10 mg/kg, ip; format: ADME, organism-based; parameters: dose 10 mg/kg, route intraperitoneal; conditions: in vivo
[21] = target: 3',5'-cyclic-AMP phosphodiesterase 7B (Homo sapiens, UniProt Q9NP56); assay: Inhibition of cloned human recombinant PDE7B assessed as [3H]cAMP hydrolysis by radiometric assay
Homo sapiens [22] = species: Homo sapiens; assay: Selectivity ratio of IC50 for cloned human recombinant PDE4D to IC50 for cloned human recombinant PDE7A
Mus musculus [23] = assay: Antiparkinsonian activity in C57BL/6 mouse assessed as decrease in MPTP-induced rearing behavior impairment at 30 mg/kg, ip administered 15 mins on day 7 post MPTP challenge; format: functional, organism-based; parameters: dose 30 mg/kg
Mus musculus [24] = assay: Neurotoxicity in C57BL/6 mouse assessed as induction of catalepsy at 1 to 10 mg/kg, ip measured at 0.5 to 1 hr; format: toxicity, organism-based; parameters: route intraperitoneal; conditions: in vivo
[25] = Tmax in C57 mouse at 30 mg/kg, ip; format: ADME, organism-based; parameters: dose 30 mg/kg, route intraperitoneal; conditions: in vivo
[26] = target: High affinity cGMP-specific 3',5'-cyclic phosphodiesterase 9A (Homo sapiens) (UniProt O76083); assay: Inhibition of cloned human recombinant PDE9A2 assessed as [3H]cAMP hydrolysis at 10 uM by radiometric assay
[27] = Cmax in C57 mouse at 30 mg/kg, ip; format: ADME, organism-based; parameters: dose 30 mg/kg, route intraperitoneal; conditions: in vivo
[28] = Tmax in C57 mouse at 100 mg/kg, ip; format: ADME, organism-based; parameters: dose 100 mg/kg, route intraperitoneal; conditions: in vivo
[29] = target: cGMP-specific 3',5'-cyclic phosphodiesterase (Homo sapiens) (UniProt O76074); assay: Inhibition of cloned human recombinant PDE5A assessed as [3H]cAMP hydrolysis at 10 uM by radiometric assay
[30] = Metabolic stability in human liver microsomes assessed as compound remaining after 60 mins; format: ADME, Microsome; conditions: read-out: Stability
[31] = Plasma concentration in C57 mouse at 30 mg/kg, ip after 30 mins; format: ADME, organism-based; parameters: dose 30 mg/kg, route intraperitoneal
Mus musculus [32] = assay: Neurotoxicity in C57BL/6 mouse assessed as potentiation of haloperidol-induced catalepsy at 1 to 10 mg/kg, ip administered 15 mins prior to haloperidol challenge measured at 0.5 to 1 hr post haloperidol challenge; format: toxicity, organism-based; parameters: route intraperitoneal; conditions: in vivo
[33] = Plasma concentration in C57 mouse at 10 mg/kg, ip after 30 mins; format: ADME, organism-based; parameters: dose 10 mg/kg, route intraperitoneal
[34] = Metabolic stability in rat liver microsomes assessed as compound remaining after 60 mins; format: ADME, Microsome; conditions: read-out: Stability
Mus musculus [35] = assay: Neurotoxicity in C57BL/6 mouse assessed as induction of catalepsy at 30 mg/kg, ip measured at 0.5 to 1 hr; format: toxicity, organism-based; parameters: dose 30 mg/kg, route intraperitoneal; conditions: in vivo
[36] = Drug uptake in C57 mouse brain at 30 mg/kg, ip after 30 mins; format: ADME, organism-based; parameters: dose 30 mg/kg, route intraperitoneal; conditions: read-out: Drug uptake
[37] = Ratio of drug level in brain to plasma in C57 mouse at 10 mg/kg, ip after 30 mins; format: ADME, organism-based; parameters: dose 10 mg/kg, route intraperitoneal; conditions: read-out: BPR
[38] = target: Dual specificity calcium/calmodulin-dependent 3',5'-cyclic nucleotide phosphodiesterase 1A (Homo sapiens) (UniProt P54750); assay: Inhibition of cloned human recombinant PDE1A assessed as [3H]cAMP hydrolysis at 10 uM by radiometric assay
[39] = Plasma concentration in C57 mouse at 100 mg/kg, ip after 30 mins; format: ADME, organism-based; parameters: dose 100 mg/kg, route intraperitoneal
[40] = Drug uptake in C57 mouse brain at 100 mg/kg, ip after 30 mins; format: ADME, organism-based; parameters: dose 100 mg/kg, route intraperitoneal; conditions: read-out: Drug uptake
[41] = target: High affinity cAMP-specific and IBMX-insensitive 3',5'-cyclic phosphodiesterase 8A (Homo sapiens) (UniProt O60658); assay: Inhibition of cloned human recombinant PDE8A1 assessed as [3H]cAMP hydrolysis at 10 uM by radiometric assay
[42] = AUC in C57 mouse at 100 mg/kg, ip; format: ADME, organism-based; parameters: dose 100 mg/kg, route intraperitoneal; conditions: plasma
[43] = Ratio of drug level in brain to plasma in C57 mouse at 30 mg/kg, ip after 30 mins; format: ADME, organism-based; parameters: dose 30 mg/kg, route intraperitoneal; conditions: read-out: BPR
[44] = target: T3, 3',5'-cyclic-AMP phosphodiesterase 4D; assay: Inhibition of cloned human recombinant PDE4D assessed as [3H]cAMP hydrolysis by radiometric assay
[45] = AUC in C57 mouse at 10 mg/kg, ip; format: ADME, organism-based; parameters: dose 10 mg/kg, route intraperitoneal; conditions: plasma
Brain [46] = assay: Free drug level in C57 mouse brain homogenate at 1 uM by high throughput dialysis method; format: ADME, tissue-based; conditions: in vivo

T1 sequence (Q13946 whole entry): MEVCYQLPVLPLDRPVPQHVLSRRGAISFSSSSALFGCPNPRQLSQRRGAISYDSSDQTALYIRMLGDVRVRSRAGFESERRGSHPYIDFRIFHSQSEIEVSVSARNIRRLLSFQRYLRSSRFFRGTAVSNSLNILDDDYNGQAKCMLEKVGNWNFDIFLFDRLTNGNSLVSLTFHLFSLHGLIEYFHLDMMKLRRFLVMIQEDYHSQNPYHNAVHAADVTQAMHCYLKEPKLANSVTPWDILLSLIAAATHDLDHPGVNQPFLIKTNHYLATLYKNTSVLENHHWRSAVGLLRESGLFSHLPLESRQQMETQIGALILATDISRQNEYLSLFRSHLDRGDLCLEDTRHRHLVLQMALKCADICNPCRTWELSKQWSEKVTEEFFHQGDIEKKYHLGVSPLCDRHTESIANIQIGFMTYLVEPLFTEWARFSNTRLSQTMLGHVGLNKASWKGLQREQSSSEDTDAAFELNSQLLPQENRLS
T3 sequence (Q08499 whole entry): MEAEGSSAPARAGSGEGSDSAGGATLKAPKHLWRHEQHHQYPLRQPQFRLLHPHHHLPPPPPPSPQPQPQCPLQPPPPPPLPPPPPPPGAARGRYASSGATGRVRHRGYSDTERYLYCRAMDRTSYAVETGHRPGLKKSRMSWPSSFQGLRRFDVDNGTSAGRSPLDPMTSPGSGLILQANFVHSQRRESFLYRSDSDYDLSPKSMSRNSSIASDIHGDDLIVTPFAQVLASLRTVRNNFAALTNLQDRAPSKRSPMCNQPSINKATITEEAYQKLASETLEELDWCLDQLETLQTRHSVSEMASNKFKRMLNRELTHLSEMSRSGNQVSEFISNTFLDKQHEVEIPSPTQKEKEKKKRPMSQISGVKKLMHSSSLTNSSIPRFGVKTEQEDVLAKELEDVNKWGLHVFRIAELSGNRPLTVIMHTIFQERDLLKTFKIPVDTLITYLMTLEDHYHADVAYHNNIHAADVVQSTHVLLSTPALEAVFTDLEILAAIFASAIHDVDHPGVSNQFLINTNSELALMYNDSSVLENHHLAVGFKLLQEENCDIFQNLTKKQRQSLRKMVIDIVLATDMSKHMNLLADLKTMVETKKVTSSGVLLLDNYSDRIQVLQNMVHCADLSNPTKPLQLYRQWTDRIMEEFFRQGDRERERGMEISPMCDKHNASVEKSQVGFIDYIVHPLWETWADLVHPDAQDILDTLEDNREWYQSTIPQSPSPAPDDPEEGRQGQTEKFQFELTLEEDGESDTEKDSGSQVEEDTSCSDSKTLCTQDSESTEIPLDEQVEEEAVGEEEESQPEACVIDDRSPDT
High affinity cGMP-specific 3',5'-cyclic phosphodiesterase 9A (Homo sapiens), sequence (O76083 whole entry): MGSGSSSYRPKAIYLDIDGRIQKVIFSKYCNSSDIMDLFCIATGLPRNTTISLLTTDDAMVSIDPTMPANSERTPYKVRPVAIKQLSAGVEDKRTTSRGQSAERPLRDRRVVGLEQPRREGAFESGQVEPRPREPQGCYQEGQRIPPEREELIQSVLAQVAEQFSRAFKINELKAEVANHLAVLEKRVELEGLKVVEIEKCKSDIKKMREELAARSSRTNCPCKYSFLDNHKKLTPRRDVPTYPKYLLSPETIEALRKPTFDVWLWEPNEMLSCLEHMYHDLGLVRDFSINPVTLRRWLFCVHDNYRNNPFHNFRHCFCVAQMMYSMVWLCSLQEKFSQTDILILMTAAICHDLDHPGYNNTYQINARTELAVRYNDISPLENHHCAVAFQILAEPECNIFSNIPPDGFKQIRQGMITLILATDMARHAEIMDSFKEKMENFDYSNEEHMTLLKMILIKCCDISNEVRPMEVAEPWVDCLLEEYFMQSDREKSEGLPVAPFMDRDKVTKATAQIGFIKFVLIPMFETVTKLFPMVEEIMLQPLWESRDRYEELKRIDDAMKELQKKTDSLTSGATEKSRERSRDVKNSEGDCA
High affinity cAMP-specific and IBMX-insensitive 3',5'-cyclic phosphodiesterase 8A (Homo sapiens), sequence (O60658 whole entry): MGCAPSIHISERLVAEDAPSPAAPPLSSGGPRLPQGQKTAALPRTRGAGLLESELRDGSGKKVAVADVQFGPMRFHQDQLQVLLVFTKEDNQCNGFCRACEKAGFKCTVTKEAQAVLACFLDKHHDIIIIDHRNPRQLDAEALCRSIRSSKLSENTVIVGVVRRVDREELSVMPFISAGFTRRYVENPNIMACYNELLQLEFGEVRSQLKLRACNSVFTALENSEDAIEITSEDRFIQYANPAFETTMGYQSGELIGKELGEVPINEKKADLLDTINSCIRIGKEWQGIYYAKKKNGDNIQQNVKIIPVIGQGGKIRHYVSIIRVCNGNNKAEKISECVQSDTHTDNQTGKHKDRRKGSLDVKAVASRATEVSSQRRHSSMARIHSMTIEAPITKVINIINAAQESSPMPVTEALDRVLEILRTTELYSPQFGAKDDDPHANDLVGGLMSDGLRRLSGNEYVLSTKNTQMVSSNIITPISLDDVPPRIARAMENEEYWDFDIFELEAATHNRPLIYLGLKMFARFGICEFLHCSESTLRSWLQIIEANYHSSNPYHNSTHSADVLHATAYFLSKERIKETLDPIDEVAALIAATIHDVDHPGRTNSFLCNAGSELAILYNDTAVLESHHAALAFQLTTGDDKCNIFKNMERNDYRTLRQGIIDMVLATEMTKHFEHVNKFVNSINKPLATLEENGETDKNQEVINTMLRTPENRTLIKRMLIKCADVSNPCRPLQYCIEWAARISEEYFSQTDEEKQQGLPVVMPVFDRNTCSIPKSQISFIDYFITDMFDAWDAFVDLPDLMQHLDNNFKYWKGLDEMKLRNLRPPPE
3',5'-cyclic-AMP phosphodiesterase 7B, sequence (Q9NP56 whole entry): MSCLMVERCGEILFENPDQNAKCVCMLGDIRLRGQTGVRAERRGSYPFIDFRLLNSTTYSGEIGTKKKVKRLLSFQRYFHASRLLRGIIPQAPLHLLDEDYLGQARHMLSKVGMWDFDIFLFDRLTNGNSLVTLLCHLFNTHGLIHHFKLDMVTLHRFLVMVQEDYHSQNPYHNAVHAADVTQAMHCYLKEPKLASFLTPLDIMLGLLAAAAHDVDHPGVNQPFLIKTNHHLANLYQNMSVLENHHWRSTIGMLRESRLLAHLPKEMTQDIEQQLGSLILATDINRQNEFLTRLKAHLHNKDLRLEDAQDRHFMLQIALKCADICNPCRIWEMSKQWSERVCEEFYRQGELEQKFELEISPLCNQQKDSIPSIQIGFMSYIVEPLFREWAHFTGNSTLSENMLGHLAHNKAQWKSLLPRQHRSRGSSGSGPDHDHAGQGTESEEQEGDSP
cGMP-inhibited 3',5'-cyclic phosphodiesterase 3A (Homo sapiens), sequence (Q14432 whole entry): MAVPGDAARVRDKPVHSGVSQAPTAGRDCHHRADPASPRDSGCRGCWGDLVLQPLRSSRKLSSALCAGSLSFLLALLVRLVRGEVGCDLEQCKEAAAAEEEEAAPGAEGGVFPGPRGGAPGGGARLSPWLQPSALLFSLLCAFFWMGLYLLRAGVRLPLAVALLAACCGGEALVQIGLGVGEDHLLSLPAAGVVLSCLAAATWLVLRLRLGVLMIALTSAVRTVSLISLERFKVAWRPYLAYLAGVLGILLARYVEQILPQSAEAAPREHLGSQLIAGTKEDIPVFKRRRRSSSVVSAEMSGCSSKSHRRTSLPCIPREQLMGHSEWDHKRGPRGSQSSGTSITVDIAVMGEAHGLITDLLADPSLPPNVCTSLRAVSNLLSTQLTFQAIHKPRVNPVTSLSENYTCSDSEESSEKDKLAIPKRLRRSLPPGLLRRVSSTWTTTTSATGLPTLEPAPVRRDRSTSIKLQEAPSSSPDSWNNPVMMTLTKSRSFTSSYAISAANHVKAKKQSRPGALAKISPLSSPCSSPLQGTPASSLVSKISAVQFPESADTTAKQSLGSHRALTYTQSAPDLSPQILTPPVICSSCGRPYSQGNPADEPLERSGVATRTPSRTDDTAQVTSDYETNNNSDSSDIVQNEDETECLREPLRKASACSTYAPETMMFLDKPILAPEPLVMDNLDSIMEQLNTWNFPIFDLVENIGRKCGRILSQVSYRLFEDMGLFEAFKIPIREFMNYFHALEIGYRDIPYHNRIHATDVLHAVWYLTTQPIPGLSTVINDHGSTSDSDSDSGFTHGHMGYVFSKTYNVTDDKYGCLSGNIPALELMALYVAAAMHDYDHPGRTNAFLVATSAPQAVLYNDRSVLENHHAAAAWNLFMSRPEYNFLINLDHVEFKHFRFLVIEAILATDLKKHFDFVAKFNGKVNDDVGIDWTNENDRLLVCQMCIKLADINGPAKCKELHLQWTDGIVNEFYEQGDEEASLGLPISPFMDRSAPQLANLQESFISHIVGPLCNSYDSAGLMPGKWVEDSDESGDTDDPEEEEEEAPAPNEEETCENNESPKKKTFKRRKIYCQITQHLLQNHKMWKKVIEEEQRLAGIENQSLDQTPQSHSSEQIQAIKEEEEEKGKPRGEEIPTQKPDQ
Dual specificity calcium/calmodulin-dependent 3',5'-cyclic nucleotide phosphodiesterase 1A (Homo sapiens), sequence (P54750 whole entry): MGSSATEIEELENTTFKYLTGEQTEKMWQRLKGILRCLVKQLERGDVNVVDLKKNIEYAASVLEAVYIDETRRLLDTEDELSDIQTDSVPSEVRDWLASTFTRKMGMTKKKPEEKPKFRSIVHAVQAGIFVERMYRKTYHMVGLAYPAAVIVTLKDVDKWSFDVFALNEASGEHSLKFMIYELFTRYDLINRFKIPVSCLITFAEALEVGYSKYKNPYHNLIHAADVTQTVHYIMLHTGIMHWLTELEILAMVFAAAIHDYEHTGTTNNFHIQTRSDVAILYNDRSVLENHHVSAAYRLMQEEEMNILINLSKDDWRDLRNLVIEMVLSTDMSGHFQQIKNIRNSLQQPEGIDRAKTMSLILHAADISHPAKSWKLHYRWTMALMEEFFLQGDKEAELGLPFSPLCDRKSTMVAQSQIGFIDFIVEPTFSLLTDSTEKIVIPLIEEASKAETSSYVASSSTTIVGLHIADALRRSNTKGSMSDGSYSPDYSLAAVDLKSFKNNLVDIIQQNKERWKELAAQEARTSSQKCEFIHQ

IC50 [1]: 81 nM
Structure (SMILES): COc1cc(N2CCC(O)CC2)ccc1-c1nc2c(C)nn(C3CCCCC3)c(=O)c2[nH]1

inhibition [2]: 89%
Structure (SMILES): COc1cc(N2CCC(N)CC2)ccc1-c1nc2c(C)nn(C3CCCC3)c(=O)c2[nH]1

IC50 [1]: 55 nM
Structure (SMILES): COc1cc(O[C@@H]2CCNC2)ccc1-c1nc2c(C)nn(C3CCCCC3)c(=O)c2[nH]1

inhibition [2]: 6%
Structure (SMILES): CCCCC(CC)Cn1nc(C)c2nc(-c3ccc(N4CCC(N)CC4)cc3OC)[nH]c2c1=O (centres undefined)

IC50 [1]: 3 nM
Structure (SMILES): COc1cc(C2CC2C(N)=O)ccc1-c1nc2c(C)nn(C3CCCCC3)c(=O)c2[nH]1 (centres undefined)

IC50 [1]: 53 nM
Structure (SMILES): COc1cc(N2CC(O)C2)ccc1-c1nc2c(C)nn(C3CCCCC3)c(=O)c2[nH]1

inhibition [2]: 13%
Structure (SMILES): COc1cc(N2CCC(N)CC2)ccc1-c1nc2c(C)nn(Cc3ccccc3)c(=O)c2[nH]1

IC50 [1]: 77 nM
Structure (SMILES): COc1cc(N2CC[C@@H](N)C2)ccc1-c1nc2c(C)nn(C3CCCCC3)c(=O)c2[nH]1

IC50 [1]: 45 nM
Structure (SMILES): COc1cc(-c2cn[nH]c2)ccc1-c1nc2c(C)nn(C3CCCCC3)c(=O)c2[nH]1

IC50 [1]: 33 nM
Structure (SMILES): COc1cc(N2CCCC(O)CC2)ccc1-c1nc2c(C)nn(C3CCCCC3)c(=O)c2[nH]1 (centres undefined)

IC50 [1]: 32 nM
Structure (SMILES): COc1cc(N2CCCN(C(C)=O)CC2)ccc1-c1nc2c(C)nn(C3CCCCC3)c(=O)c2[nH]1

IC50 [3]: 63 nM
Kp at 0.5 h [5]: 3.05
inhibition [6]: 6%
remaining at 1 h [7]: 4%
inhibition [8]: 10%
inhibition [9]: 23%
Tmax [10]: 15 min
concentration at 0.5 h [11]: 1140 ng/g
Drug uptake(free) (Brain [12]): 763 nM
Ratio IC50 (Homo sapiens [13]): > 150
Drug uptake(free) (Brain [14]): 91 nM
inhibition [15]: 29%
AUC [16]: 5020 ng·h/mL
IC50 [1]: 31 nM
Cmax [17]: 1480 ng/mL
inhibition [18]: 86%
Cmax [19]: 44200 ng/mL
Drug uptake(free) (Brain [20]): 6 nM
IC50 [21]: 43 nM
Ratio IC50 (Homo sapiens [22]): > 200
Tmax [25]: 15 min
inhibition [26]: 9%
Cmax [27]: 6350 ng/mL
Tmax [28]: 30 min
inhibition [29]: 3%
remaining at 1 h [30]: 43%
concentration at 0.5 h [31]: 4680 ng/mL
concentration at 0.5 h [33]: 699 ng/mL
remaining at 1 h [34]: 68%
concentration at 0.5 h [36]: 16000 ng/g
Kp at 0.5 h [37]: 1.69
inhibition [38]: 37%
concentration at 0.5 h [39]: 44200 ng/mL
concentration at 0.5 h [40]: 135000 ng/g
inhibition [41]: 0%
AUC [42]: 168000 ng·h/mL
Kp at 0.5 h [43]: 3.43
IC50 [44]: 6550 nM
AUC [45]: 792 ng·h/mL
Drug uptake(free) (Brain [46]): 0.2%
Structure (SMILES): COc1cc(N)ccc1-c1nc2c(C)nn(C3CCCCC3)c(=O)c2[nH]1
Activity (Mus musculus [4]): Toxic
Activity (Mus musculus [23]): inactive
Activity (Mus musculus [24]): Non-toxic
Activity (Mus musculus [32]): Toxic
Activity (Mus musculus [35]): Toxic

inhibition [2]: 7%
Structure (SMILES): COc1cc(N2CCC(N)CC2)ccc1-c1nc2c(C)nn(C3CCN(C)CC3)c(=O)c2[nH]1

IC50 [1]: 75 nM
inhibition [2]: 92%
Structure (SMILES): COc1cc(N2CCC(N)CC2)ccc1-c1nc2c(C)nn(C3CCCCCC3)c(=O)c2[nH]1
